Tests used:
Nucleic Acid = test: Ratio of drug level in brain to plasma in Sprague-Dawley rat at 10 mg/kg, po measured at 6 hrs; assay type: ADME, organism-based; set-up: dose 10 mg/kg, route oral
[1] = Drug uptake in Sprague-Dawley rat brain at 10 mg/kg, po measured at 6 hrs by LC-MS/MS analysis; assay type: ADME, organism-based; set-up: dose 10 mg/kg, route oral; details: read-out: Drug uptake
[2] = Plasma concentration in Sprague-Dawley rat at 10 mg/kg, po measured at 6 hrs by LC-MS/MS analysis; assay type: ADME, organism-based; set-up: dose 10 mg/kg, route oral
[3] = Dissociation constant, pKa of the compound; assay type: physicochemical

| SMILES | BPR (Nucleic Acid) | concentration at 6 h [1] [nM] | concentration at 6 h [2] [nM] | pKa [3] |
| --- | --- | --- | --- | --- |
| NC1=N[C@@]2(c3cc(NC(=O)c4cnc(CF)cn4)ccc3F)CO[C@H](C(F)(F)F)[C@H]2CS1 | 3.7 | 845 | 229 | – |
| NC1=N[C@@]2(c3cc(NC(=O)c4cnc(C(F)F)cn4)ccc3F)CO[C@H](CF)[C@H]2CS1 | 0.7 | 570 | 570 | – |
| COc1cccc(-c2cccc([C@@]3(c4ccncc4)N=C(N)N4CC(F)(F)CN=C43)c2)c1F | – | – | – | 5.3 |
| NC1=N[C@](c2ccc(OC(F)F)cc2)(c2cccc(OCCF)c2)C2=NCC(F)(F)CN12 | – | – | – | 6.5 |
